Measurements from patent US10179125B2, “Substituted pyridines as bromodomain inhibitors” (Zenith Epigenetics Ltd., priority 2014, dated 2019).

Columns and labels:
Human AML MV-4-11 cells = test: Inhibition of cell proliferation in MV4-11 cells (CellTiter Aqueous One); type: cell-based; settings: 72 h; for IC50: Homo sapiens
Protocol: MV4-11 cells (CRL-9591) were plated at a density of 5×10^4 cells per well in 96 well flat bottom plates and treated with increasing concentrations of test compound or DMSO (0.1%) in IMDM media containing 10% FBS and penicillin/streptomycin. Triplicate wells were used for each concentration and a well containing only media was used as a control. Plates were incubated at 37° C., 5% CO2 for 72 h before adding 20 μL of the CellTiter Aqueous One Solution (Promega) to each well and incubated at 37° C., 5% CO2 for an additional 3-4 h. The absorbance was read at 490 nm in a spectrophotometer and the percentage of cell titer relative to DMSO-treated cells was calculated after correcting for background by subtracting the blank well's signal. IC50 values were calculated using the GraphPad Prism software.

hIL-6 = test: Inhibition of hIL-6 mRNA transcription in LPS-stimulated U937 cells; type: cell-based, Human; settings: Homo sapiens, U-937, PMA-differentiated U937 cells, 1 h pretreatment, LPS 3 h, read-out: IL-6 activity
Protocol: Human leukemic monocyte lymphoma U937 cells (CRL-1593.2) were plated at a density of 3.2×10^4 cells per well in a 96-well plate in 100 μL RPMI-1640 containing 10% FBS and penicillin/streptomycin, and differentiated into macrophages for 3 days in 60 ng/mL PMA ([…]) at 37° C. in 5% CO2 prior to the addition of compound. The cells were pretreated for 1 h with increasing concentrations of test compound in 0.1% DMSO prior to stimulation with 1 ug/mL lipopolysaccharide from Escherichia coli. Triplicate wells were used for each concentration. The cells were incubated at 37° C., 5% CO2 for 3 h before the cells were harvested. At time of harvest, media was removed and cells were rinsed in 200 μL PBS. Cells were harvested using the mRNA Catcher PLUS kit according to manufacturer's instructions. The eluted mRNA was then used in a one-step quantitative real-time PCR reaction using components of the RNA UltraSense™ One-Step Kit (Life Technologies) together with Applied Biosystems TaqMan® primer-probes for hIL-6 and Cyclophilin. Real-time PCR plates were run on a ViiA™7 real time PCR machine (Applied Biosystems), data was analyzed, normalizing the Ct values for hIL-6 to an internal control, prior to determining the fold expression of each sample, relative to the control.

[1] = molecular target: T1, Brd4 bromodomain 1 (BRD4(1)) (Homo sapiens, UniProt O60885); test: Inhibition of tetra-acetylated histone H4 binding to BET bromodomain (HTRF/FRET); settings: His-tagged bromodomain 200 nM, biotinylated tetra-acetylated histone H4 peptide, 2 h room temperature
T1 construct: made in house; host or cells: E. coli BL21(DE3)
Protocol: Proteins were cloned and overexpressed with a N-terminal 6×His tag, then purified by nickel affinity followed by size exclusion chromatography. Briefly, E. coli BL21(DE3) cells were transformed with a recombinant expression vector encoding N-terminally Nickel affinity tagged bromodomains from Brd2, Brd3, Brd4. Cell cultures were incubated at 37° C. with shaking to the appropriate density and induced overnight with IPTG. The supernatant of lysed cells was loaded onto Ni-IDA column for purification, Eluted protein was pooled, concentrated and further purified by size exclusion chromatography. Fractions representing monomeric protein were pooled, concentrated, aliquoted, and frozen at −80° C. for use in subsequent experiments.
Binding of tetra-acetylated histone H4 and BET bromodomains was confirmed by a Homogenous Time Resolved Fluorescence Resonance Energy Transfer (HTRF®) method, N-terminally His-tagged bromodomains (200 nM) and biotinylated tetra-acetylated histone H4 peptide (25-50 nM, Millipore) were incubated in the presence of Europium Cryptate-labeled streptavidin (Cisbio Cat, #610SAKLB) and XL665-labeled monoclonal anti-His antibody (Cisbio Cat.1461HISXLB) in a white 96 well microtiter plate (Greiner). For inhibition assays, serially diluted test compound was added to these reactions in a 0.2% final concentration of DMSO. Duplicate wells were used for each concentration tested. Final buffer concentrations were 30 mM HEPES pH 7.4, 30 mM NaCl, 0.3 mM CHAPS, 20 mM phosphate pH 7.0, 320 mM KF, 0.08% BSA. After a 2 h incubation at room temperature, fluorescence was measured at 665 and 620 nm with a SynergyH4 plate reader (Biotek). The binding inhibitory activity was shown by a decrease in […] relative to 620 nm fluorescence. IC50 values were determined from a dose response curve.

cMYC = test: Inhibition of cMYC expression in MV4-11 cells (real-time PCR); type: cell-based, Human; settings: 3 h, cMYC mRNA; for IC50: Homo sapiens, read-out: c-myc activity
Protocol: MV4-11 cells (CRL-9591) were plated at a density of 2.5×10^4 cells per well in 96 well U-bottom plates and treated with increasing concentrations of test compound or DMSO (0.1%) in IMDM media containing 10% FBS and penicillin/streptomycin, and incubated for 3 h at 37° C. Triplicate wells were used for each concentration. Cells were pelleted by centrifugation and harvested using the mRNA Catcher PLUS kit according to manufacturer's instructions. The eluted mRNA isolated was then used in a one-step quantitative real-time PCR reaction, using components of the RNA UltraSense™ One-Step Kit (Life Technologies) together with Applied Biosystems TaqMan® primer-probes for cMYC and Cyclophilin, Real-time PCR plates were run on a ViiA™7 real time PCR machine (Applied Biosystems), data was analyzed, normalizing the Ct values for cMYC to an internal control, prior to determining the fold expression of each sample, relative to the control.

IC50 (Human AML MV-4-11 cells)	IC50 (hIL-6)	IC50 [1]	IC50 (cMYC)	Structure (SMILES)	c-myc activity (cMYC)	Cell Proliferation activity (Human AML MV-4-11 cells)
3000 to 30000 nM	300 to 3000 nM	≤ 300 nM	300 to 3000 nM	CNc1ncc(-c2c(C)noc2C)cc1NCc1ccc(C#N)s1 [Example 54, 5-(((5-(3,5-dimethylisoxazol-4-yl)-2-(methylamino)pyridin-3-yl)amino)methyl)thiophene-2-carbonitrile]	–	–
300 to 3000 nM	300 to 3000 nM	≤ 300 nM	300 to 3000 nM	COc1ncc(-c2c(C)noc2C)cc1Nc1cn(C)nc1C [Example 63, N-(1,3-dimethyl-1H-pyrazol-4-yl)-5-(3,5-dimethylisoxazol-4-yl)-2-methoxypyridin-3-amine]	–	–
300 to 3000 nM	300 to 3000 nM	≤ 300 nM	300 to 3000 nM	CNc1ncc(-c2c(C)noc2C)cc1NCc1ccsc1 [Example 68, 5-(3,5-dimethylisoxazol-4-yl)-N2-methyl-N3-(thiophen-3-ylmethyl)pyridine-2,3-diamine]	–	–
–	3000 to 30000 nM	≤ 300 nM	–	COc1ncc(-c2c(C)noc2C)cc1Nc1cc(C#N)ccc1C [Example 61, 3-((5-(3,5-dimethylisoxazol-4-yl)-2-methoxypyridin-3-yl)amino)-4-methylbenzonitrile]	Not Active	Not Active
300 to 3000 nM	300 to 3000 nM	≤ 300 nM	300 to 3000 nM	COc1ncc(-c2c(C)noc2C)cc1NCc1cccnc1 [Example 33, 5-(3,5-dimethylisoxazol-4-yl)-2-methoxy-N-(pyridin-3-ylmethyl)pyridin-3-amine]	–	–
300 to 3000 nM	300 to 3000 nM	≤ 300 nM	300 to 3000 nM	CNc1ncc(-c2c(C)noc2C)cc1NCc1ccccn1 [Example 55, 5-(3,5-dimethylisoxazol-4-yl)-N2-methyl-N3-(pyridin-2-ylmethyl)pyridine-2,3-diamine]	–	–
3000 to 30000 nM	300 to 3000 nM	≤ 300 nM	300 to 3000 nM	Cc1noc(C)c1-c1cnc(Oc2ccccc2)c(NCc2ccccc2)c1 [Example 38, N-benzyl-5-(3,5-dimethylisoxazol-4-yl)-2-phenoxypyridin-3-amine]	–	–

Continued, compound first:

Structure (SMILES)	IC50 (Human AML MV-4-11 cells)	IC50 (hIL-6)	IC50 [1]	IC50 (cMYC)	c-myc activity (cMYC)	Cell Proliferation activity (Human AML MV-4-11 cells)
COc1ncc(-c2c(C)noc2C)cc1OCc1ccc(C#N)cc1 [Example 30, 4-(((5-(3,5-dimethylisoxazol-4-yl)-2-methoxypyridin-3-yl)oxy)methyl)benzonitrile]	3000 to 30000 nM	3000 to 30000 nM	≤ 300 nM	–	Not Active	–
Cc1noc(C)c1-c1cnc(OC(C)C)c(NCc2ccccc2)c1 [Example 27, N-benzyl-5-(3,5-dimethylisoxazol-4-yl)-2-isopropoxypyridin-3-amine]	3000 to 30000 nM	300 to 3000 nM	≤ 300 nM	3000 to 30000 nM	–	–
COc1ncc(-c2c(C)noc2C)cc1NCc1ccc(Cl)s1 [Example 8, N-((5-chlorothiophen-2-yl)methyl)-5-(3,5-dimethylisoxazol-4-yl)-2-methoxypyridin-3-amine]	3000 to 30000 nM	300 to 3000 nM	≤ 300 nM	3000 to 30000 nM	–	–
COc1ncc(-c2c(C)noc2C)cc1NC(C)c1ccc(F)cc1 (stereo not shown) [Example 12, 5-(3,5-dimethylisoxazol-4-yl)-N-(1-(4-fluorophenyl)ethyl)-2-methoxypyridin-3-amine]	300 to 3000 nM	300 to 3000 nM	≤ 300 nM	300 to 3000 nM	–	–
COc1ncc(-c2c(C)noc2C)cc1OC(C)c1ccccc1 (stereo not shown) [Example 31, 4-(6-methoxy-5-(1-phenylethoxy)pyridin-3-yl)-3,5-dimethylisoxazole]	300 to 3000 nM	300 to 3000 nM	≤ 300 nM	3000 to 30000 nM	–	–
COc1ncc(-c2c(C)noc2C)cc1Nc1cccc(F)c1 [Example 3, 5-(3,5-dimethylisoxazol-4-yl)-N-(3-fluorophenyl)-2-methoxypyridin-3-amine]	3000 to 30000 nM	300 to 3000 nM	≤ 300 nM	300 to 3000 nM	–	–
